Experimental data: patent US20240285575A1, “NANOPARTICLES WITH ANTI-INFLAMMATORY PROPERTIES AND ENHANCED PENETRATION ACROSS THE BIOLOGICAL BARRIERS TO DELIVER ENCAPSULATED DRUGS” (The Board of Trustees of The University of Alabama, priority 2023, published 2024)

Legend:
FHs74 cells = conditions: previous study; cited from earlier work
FR on FHs74 cells = assay: Folate receptor blocking studies in FHs74 cells; assay type: cell-based, human; conditions: blocking of P2Ns-NAR uptake
Text: FR Specificity to NAR. The FR-mediated transport of P2Ns-NAR was confirmed by performing blocking studies. Folic acid (FA) strongly binds to FR, with the FA frequently being employed as a targeting ligand on nanoparticles for receptor-mediated drug delivery.^29,30 On the other hand, FA in larger doses is also associated with adverse side effects including toxicity to humans.^16,31,32 The use of NAR as an FR-specific ligand could potentially overcome this limitation and provide a safer alternative for receptor-mediated drug delivery. Selective blockade of FR on FHs74 cells was performed to evaluate the FR-mediated uptake of P2Ns-NAR. Cells were saturated with varying concentrations of blocking agents: antifolate antibody (AB), FA, and MTHFA.

| Structure (SMILES) | Time to saturate FHs74 cells (FHs74 cells) | Concentration of blocking agent needed for blocking levels similar to FA (FR on FHs74 cells) |
| --- | --- | --- |
| Nc1nc2ncc(CNc3ccc(C(=O)N[C@@H](CCC(=O)O)C(=O)O)cc3)nc2c(=O)[nH]1 [FA, Folic acid] | less than 1 hour | – |
| CN1c2c(nc(N)[nH]c2=O)NCC1CNc1ccc(C(=O)N[C@@H](CCC(=O)O)C(=O)O)cc1 (some centres unmarked) [MTHFA, methyltetrahydrofolic acid] | – | Higher concentrations |
